Results: publication PMC6222614, “Disubstituted 4-Chloro-3-nitrophenylthiourea Derivatives: Antimicrobial and Cytotoxic Studies” (Molecules : A Journal of Synthetic Chemistry and Natural …, 2018)
Values after ≈ are worked out from the molar mass of the structure shown.

How the values were obtained:
[1] = Cytotoxicity against mock-infected MT-4 cells (MTT); type: cell-based, human; conditions: human, concentration reducing viability of mock-infected MT-4 cells by 50%
Protocol: (§1) Cell line supporting the multiplication of Human Immunodeficiency Virus type-1 (HIV-1) was the CD4+ human T-cells, derived from human hematological tumors, containing an integrated HTLV-1 genome (MT-4). Cells were purchased from American Type Culture Collection (ATCC). Human Immunodeficiency Virus type-1 (HIV-1) IIIB laboratory strain was obtained from the supernatant of the persistently infected H9/IIIB cells (NIH 1983).
Exponentially growing MT-4 cells were seeded at an initial density of 1 × 10^5 cells/mL in 96-well plates in RPMI-1640 medium, supplemented with 10% fetal bovine serum (FBS), 100 units/mL penicillin G and 100 μg/mL streptomycin. Cell cultures were then incubated at 37 °C in a humidified, 5% CO2 atmosphere, in the absence or presence of serial dilutions of tested compounds. Cell viability was determined after 96 h at 37 °C by the 3-(4,5-dimethylthiazol-2-yl)-2,5-diphenyl-tetrazolium bromide (MTT) method.

[2] = system: HIV-1 IIIB; assay: Anti-HIV-1 activity: protection of MT-4 cells from virus-induced cytopathogenicity (MTT); type: cell-based, Human Immunodeficiency Virus type-1; conditions: Human immunodeficiency virus 1, IIIB, MT4, 96 h; 50% protection of MT-4 cells from HIV-1 induced cytopathogenicity, MTT, 4-day incubation; read-out: HIV-1IIIB EC50
From the text: as §1
The activity of compounds against HIV-1 was based on inhibition of virus-induced cytopathogenicity in MT-4 cell acutely infected with a multiplicity of infection (m.o.i.) of 0.01. Briefly, 50 μL of RPMI containing 1 × 10^4 MT-4 cells were added to each well of flat-bottom microtiter trays, containing 50 μL of RPMI without or with serial dilutions of test compounds. Then, 20 μL of a HIV-1 suspension containing 100 CCID50 were added. After a 4-day incubation at 37 °C, cell viability was determined by the MTT method.

[3] = system: B. cereus ATCC 11778; assay: MIC, twofold serial microdilution; type: cell-based; conditions: Bacillus cereus, ATCC11778; standard strain, 18 h, 35 °C
Protocol: (§2) The antimicrobial activity of the compounds was tested on Gram-positive bacteria (Staphylococcus aureus NCTC 4163, Staphylococcus aureus ATCC 25923, Staphylococcus aureus ATCC 6538, Staphylococcus aureus ATCC 29213, Staphylococcus epidermidis ATCC 12228, Staphylococcus epidermidis ATCC 35984, Enterococcus faecalis ATCC 29212, Bacillus subtilis ATCC 6633, Bacillus cereus ATCC 11778, Micrococcus luteus ATCC 9341, Micrococcus luteus ATCC 10240); Gram-negative rods (Escherichia coli ATCC 10538, Escherichia coli ATCC 25922, Escherichia coli NCTC 8196, Proteus vulgaris NCTC 4635, Pseudomonas aeruginosa ATCC 15442, Pseudomonas aeruginosa NCTC 6749, Pseudomonas aeruginosa ATCC 27863, Bordetella bronchiseptica ATCC 4617) and yeasts (Candida albicans ATCC 10231, Candida albicans ATCC 90028, Candida parapsilosis ATCC 22019). Other microorganisms used were obtained from the collection of the Department of Pharmaceutical Microbiology, Medical University of Warsaw, Poland.
(§3) Antibacterial activity was examined by the disc-diffusion method under standard conditions using Mueller-Hinton II agar medium (Becton Dickinson) according to CLSI (previously NCCLS) guidelines. Antifungal activities were assessed using Mueller-Hinton agar + 2% glucose and 0.5 µg/mL Methylene Blue Dye Medium. Sterile filter paper discs (9 mm diameter, Whatman No 3 chromatography paper) were dripped with tested compound solutions (in DMSO) to load 400 μg of a given compound per disc. Dry discs were placed on the surface of appropriate agar medium. The results (diameter of the growth inhibition zone) were read after 18 h of incubation at 35 °C. Minimal Inhibitory Concentration (MIC) was tested by the twofold serial microdilution method (in 96-well microtiter plates) using Mueller-Hinton Broth medium (Beckton Dickinson) for bacteria or RPMI-1640 medium for Candida species according to CLSI guidelines. The stock solution of tested agent was prepared in DMSO and diluted in sterile water. Concentrations of tested agents ranged from 0.125 to 512 µg/mL. The final inoculum of all studied microorganisms was 10^5 CFU/ mL^−1 (colony forming units per mL). Minimal inhibitory concentrations (the lowest concentration of a tested agent that prevents visible growth of a microorganism) were read after 18 h (bacteria) or 24 h (yeasts) of incubation at 35 °C.

[4] = system: B. subtilis ATCC 6633; assay: MIC, twofold serial microdilution; type: cell-based; conditions: Bacillus subtilis, ATCC6633; standard strain, 18 h, 35 °C
Protocol: as §2, §3

[5] = system: E. faecalis ATCC 29212; assay: MIC, twofold serial microdilution; type: cell-based; conditions: Enterococcus faecalis, ATCC29212; standard strain, 18 h, 35 °C
Protocol: as §2, §3

[6] = system: M. luteus ATCC 10240; assay: MIC, twofold serial microdilution; type: cell-based; conditions: Micrococcus luteus, ATCC10240; standard strain, 18 h, 35 °C
Protocol: as §2, §3

[7] = system: M. luteus ATCC 9341; assay: MIC, twofold serial microdilution; type: cell-based; conditions: Micrococcus luteus, ATCC9341; standard strain, 18 h, 35 °C
Protocol: as §2, §3

[8] = system: S. aureus ATCC 25923; assay: MIC, twofold serial microdilution; type: cell-based; conditions: Staphylococcus aureus, ATCC25923; standard strain, 18 h, 35 °C
Protocol: as §2, §3

[9] = system: S. aureus ATCC 29213; assay: MIC, twofold serial microdilution; type: cell-based; conditions: Staphylococcus aureus, ATCC29213; standard strain, 18 h, 35 °C
Protocol: as §2, §3

[10] = system: S. aureus ATCC 6538; assay: MIC, twofold serial microdilution; type: cell-based; conditions: Staphylococcus aureus, ATCC6538; standard strain, 18 h, 35 °C
Protocol: as §2, §3

[11] = system: S. aureus NCTC 4163; assay: MIC, twofold serial microdilution; type: cell-based; conditions: Staphylococcus aureus, NCTC4163; standard strain, 18 h, 35 °C
Protocol: as §2, §3

[12] = system: S. epidermidis ATCC 12228; assay: MIC, twofold serial microdilution; type: cell-based; conditions: Staphylococcus epidermidis, ATCC12228; standard strain, 18 h, 35 °C
Protocol: as §2, §3

[13] = system: S. epidermidis ATCC 35984; assay: MIC, twofold serial microdilution; type: cell-based; conditions: Staphylococcus epidermidis, ATCC35984; standard strain, 18 h, 35 °C
Protocol: as §2, §3

[14] = system: S. epidermidis MRSE 403/11; assay: MIC, hospital methicillin-resistant strain; type: cell-based; conditions: Staphylococcus epidermidis
Protocol: as §2, §3

[15] = system: S. epidermidis MRSE 404/11; assay: MIC, hospital methicillin-resistant strain; type: cell-based; conditions: Staphylococcus epidermidis
Protocol: as §2, §3

[16] = system: S. epidermidis MRSE 405/11; assay: MIC, hospital methicillin-resistant strain; type: cell-based; conditions: Staphylococcus epidermidis
Protocol: as §2, §3

[17] = system: S. epidermidis MRSE 406/11; assay: MIC, hospital methicillin-resistant strain; type: cell-based; conditions: Staphylococcus epidermidis
Protocol: as §2, §3

[18] = system: S. epidermidis MRSE 407/11; assay: MIC, hospital methicillin-resistant strain; type: cell-based; conditions: Staphylococcus epidermidis
Protocol: as §2, §3

[19] = system: S. epidermidis MRSE 409/11; assay: MIC, hospital methicillin-resistant strain; type: cell-based; conditions: Staphylococcus epidermidis
Protocol: as §2, §3

[20] = system: S. epidermidis MRSE 411/11; assay: MIC, hospital methicillin-resistant strain; type: cell-based; conditions: Staphylococcus epidermidis
Protocol: as §2, §3

[21] = system: S. epidermidis MRSE 412/11; assay: MIC, hospital methicillin-resistant strain; type: cell-based; conditions: Staphylococcus epidermidis
Protocol: as §2, §3

[22] = system: S. epidermidis MRSE 413/11; assay: MIC, hospital methicillin-resistant strain; type: cell-based; conditions: Staphylococcus epidermidis
Protocol: as §2, §3

[23] = system: S. epidermidis MRSE 422/11; assay: MIC, hospital methicillin-resistant strain; type: cell-based; conditions: Staphylococcus epidermidis
Protocol: as §2, §3

[24] = system: staphylococci; assay: MIC against staphylococci; type: cell-based; conditions: moderate activity
Protocol: as §2, §3

| EC50 [2] [µM] | MIC [3] [µg/mL] | MIC [4] [µg/mL] | MIC [5] [µg/mL] | MIC [6] [µg/mL] | MIC [7] [µg/mL] | MIC [8] [µg/mL] | MIC [9] [µg/mL] | MIC [10] [µg/mL] | MIC [11] [µg/mL] | MIC [12] [µg/mL] | MIC [13] [µg/mL] | MIC [14] [µg/mL] | MIC [15] [µg/mL] | MIC [16] [µg/mL] | MIC [17] [µg/mL] | MIC [18] [µg/mL] | MIC [19] [µg/mL] | MIC [20] [µg/mL] | SMILES | CC50 at 96 h [1] [µM] | other results |
| --- | --- | --- | --- | --- | --- | --- | --- | --- | --- | --- | --- | --- | --- | --- | --- | --- | --- | --- | --- | --- | --- |
| > 15.5 | 8 (≈ 28 µM) | 16 (≈ 56 µM) | 64 (≈ 224 µM) | 32 (≈ 112 µM) | 16 (≈ 56 µM) | 16 (≈ 56 µM) | 16 (≈ 56 µM) | 16 (≈ 56 µM) | 16 (≈ 56 µM) | 16 (≈ 56 µM) | 16 (≈ 56 µM) | 32 (≈ 112 µM) | 32 (≈ 112 µM) | 32 (≈ 112 µM) | 32 (≈ 112 µM) | 32 (≈ 112 µM) | 32 (≈ 112 µM) | 32 (≈ 112 µM) | C=C(C)CNC(=S)Nc1ccc(Cl)c([N+](=O)[O-])c1 [Compound 27, 1-(4-chloro-3-nitrophenyl)-3-(2-methylprop-2-en-1-yl)thiourea] | 15.5 | MIC [21]: 64 µg/mL (≈ 224 µM); MIC [22]: 32 µg/mL (≈ 112 µM); MIC [23]: 64 µg/mL (≈ 224 µM); MIC range towards staphylococci [24]: 8 to 16 µg/mL; melting point: 96 to 98 °C |
| ≥ 43 | 32 (≈ 118 µM) | 32 (≈ 118 µM) | 64 (≈ 236 µM) | 32 (≈ 118 µM) | 32 (≈ 118 µM) | 32 (≈ 118 µM) | 64 (≈ 236 µM) | 32 (≈ 118 µM) | 64 (≈ 236 µM) | 32 (≈ 118 µM) | 32 (≈ 118 µM) | 64 (≈ 236 µM) | 64 (≈ 236 µM) | 64 (≈ 236 µM) | 64 (≈ 236 µM) | 64 (≈ 236 µM) | 64 (≈ 236 µM) | 64 (≈ 236 µM) | C=CCNC(=S)Nc1ccc(Cl)c([N+](=O)[O-])c1 [Compound 28, 1-(4-chloro-3-nitrophenyl)-3-prop-2-en-1-ylthiourea] | 43 | MIC [21]: 128 µg/mL (≈ 471 µM); MIC [22]: 64 µg/mL (≈ 236 µM); MIC [23]: 128 µg/mL (≈ 471 µM); melting point: 112 to 114 °C |
| > 33.7 | 8 (≈ 25 µM) | 16 (≈ 50 µM) | 64 (≈ 200 µM) | 32 (≈ 100 µM) | 16 (≈ 50 µM) | 16 (≈ 50 µM) | 16 (≈ 50 µM) | 16 (≈ 50 µM) | 16 (≈ 50 µM) | 16 (≈ 50 µM) | 16 (≈ 50 µM) | 32 (≈ 100 µM) | 32 (≈ 100 µM) | 32 (≈ 100 µM) | 32 (≈ 100 µM) | 32 (≈ 100 µM) | 32 (≈ 100 µM) | 32 (≈ 100 µM) | CSCCCNC(=S)Nc1ccc(Cl)c([N+](=O)[O-])c1 [Compound 29, 1-(4-chloro-3-nitrophenyl)-3-[3-(methylsulfanyl)propyl]thiourea] | 33.7 | MIC [21]: 32 µg/mL (≈ 100 µM); MIC [22]: 32 µg/mL (≈ 100 µM); MIC [23]: 32 µg/mL (≈ 100 µM); MIC range towards staphylococci [24]: 8 to 16 µg/mL; melting point: 102 to 103.5 °C |
